# Laboratory results published in publication PMC6348924, “Detection of Active Caspase-3 in Mouse Models of Stroke and Alzheimer's Disease with a Novel Dual Positron Emission Tomography/Fluorescent Tracer [^68Ga]Ga-TC3-OGDOTA” (Contrast Media & Molecular Imaging, 2019).
# Tested on: primary cortical neuronal cultures treated with CPT
# Assay: Ga-TC3-OGDOTA accumulation in CPT toxicity assay
# Assay type: cell-based, mouse
# Conditions: 10 μM CPT, 24 h
# Procedure: For the in vitro cell culture studies, primary hippocampal and cortical neuronal cultures were prepared from E17 mouse embryos as described previously and cultured in regular neuronal medium (RNM) containing 1x B27, 0.5 mM glutamine, 0.25% glucose in Neurobasal medium (Invitrogen).
# Three different conditions known to induce neuronal apoptosis were used to study Ga-TC3-OGDOTA uptake in cell culture: camptothecin (CPT) toxicity, OGD, and AβO toxicity. […] For the CPT toxicity assay, cortical neurons were treated with 0 (control) or 10 μM CPT (Sigma-Aldrich) for 24 h at normal conditions (5% CO2, 37°C). After that the cultures were washed with RNM and incubated with various concentrations of Ga-TC3-OGDOTA for 7 h, followed by either direct live imaging or fixation with 4% paraformaldehyde (PFA) in PBS for staining. […]
# For coimaging of Hoechst 33342 (Hoechst), 4′,6′-Diamidino-2-Phenylindole (DAPI), Oregon Green and CC3, fixed cultures were immunostained with anti-CC3 antibody (1 : 500, Cell Signaling, cat#9661) followed by antirabbit secondary antibody and DAPI or Hoechst. […] Cells positive for tracer, CC3, and total number of cells were counted using the ImageJ (NIH, Bethesda, MD) Cell Counter plugin and their ratio was compared between the treatments.
structure (smiles),measurement,value
"CC[C@@]1(O)C(=O)OCc2c1cc1n(c2=O)Cc2cc3ccccc3nc2-1 [CPT, camptothecin]",effect on number of apoptotic neurons in the culture,elevated
